3 sequences from PMC7440915, “Discovery of surrogate agonists for visceral fat Treg cells that modulate metabolic indices in vivo” (eLife, 2020) can be followed below.

Assay [1] deals with vTreg53 Treg cells. Briefly: Proliferation and activation of primary vTreg53 TCR-tg Treg cells in vitro. Type of assay: cell-based, mouse. Particulars: 3 days; for proliferation: compared with no peptide / other SPs; for potency on primary vTreg53 Treg cells: in vitro. From the text: Figure 4. SPs induce proliferation and activation of vTreg53 Treg cells in vitro and in vivo. (A–D) Proliferation and activation of vTreg53 Treg cells by different concentrations of SPs for 3 days in vitro (n = 3). (A) Representative flow cytometric plot of cell division. (B) Summary of cell proliferation. (C) Mean flourescence intensity (MFI) of CD44 staining in clonotype^+ Treg cells. (D) MFI of CD62L staining in clonotype^+ Treg cells. (E) Proliferation of transferred CD45.2^+ vTreg53 Treg cells in the spleen of CD45.1^+ B6 recipient mice immunized s.c. with CFA or CFA/Fat1562 at day 3 (n = 3). (F) Expansion of transferred CD45.2^+ vTreg53 Treg cells in the Spl/LNs or VAT of CD45.1^+ B6 recipient mice that were primed with CFA/fat1562 s.c. and boosted with IFA/Fat1562 i.p. (n ≥ 3). Data are mean ± SD. Data shown are representative of at least two independent experiments. Figure 4—figure supplement 1. Single cell TCR sequencing (scTCR-seq) analyses of fat1562-reactive endogenous Treg cells following immunization. (A) Scheme of the experiment. (B) Flow cytometric analysis of fat1562/A^b -PE tetramer+ Treg cells in Spl/LNs (enriched by anti-PE beads) or VAT (not enriched) of mice immunized with adjuvant alone or adjuvant/fat1562. Plot is a representative of mice that did show detectable expansion of tetramer+ Tregs. (C) Numbers of fat1562/A^b -PE tetramer+ Treg cells in Spl/LNs or VAT of mice immunized with adjuvant alone or adjuvant/fat1562 (D) Summary of the frequency and CDR3 sequences of expanded fat1562/A^b -PE tetramer+ Treg clones. [drawing 5] TEXT PRINTED IN THE PICTURE: (A) Fat7: 51 (1μM); 32.1 (0.1μM); 16.4 (0.01μM) | (A) Fat15: 59.7 (1μM); 54.4 (0.1μM); 37.1 (0.01μM) | (A) Fat1562: 61.6 (1μM); 57.6 (0.1μM); 51.8 (0.01μM) | (A) Fat2564: 44.2 (1μM); 32.5 (0.1μM); 19.3 (0.01μM) | (E) CFA: 9.6 | (E) CFA/Fat1562: 76.8 | (F) adjuvant: 0.1 (Spl/LN); 1.5 (VAT) | (F) adjuvant/Fat1562: 0.7 (Spl/LN); 38.1 (VAT) DOUBTS OF THE COPYIST ABOUT THIS PICTURE: Panels A, E, F: the gate numbers in the flow cytometry plots are printed without a measure or unit; they are copied as bare numbers. / Panel A: the row 'no peptide' (15.7, 17.1, 17.2) is a control without a substance and was left out. / Panel A, Fat1562, 1μM: the number is crossed by the histogram line; 61.6 is the best reading. / Panel E, CFA/Fat1562: the number is crossed by the histogram line; 76.8 is the best reading.
Tregs from pooled LNs of Tg^+ Foxp3-GFP^KI/y mice were labeled with CellTrace Violet dye (ThermoFisher Scientific), cultured in complete RPMI medium in the presence of 100 U/ml recombinant mouse IL-2 (peprotech), and stimulated by syngeneic APCs loaded with the indicated concentrations of different peptides. 3 days later, the proliferation and activation of clonotype^+ Treg cells was determined by flow cytometric analysis of the dilution of the CellTrace Violet dye, upregulation of CD44 expression, and downregulation of CD62L levels.

Assay [2] has as its system vTreg53 Treg cells. Briefly: Expansion of transferred vTreg53 Treg cells in Spl/LN or VAT after prime and boost. To be noted: compared with adjuvant alone, CFA s.c. then IFA i.p. In kind it is in vivo, mouse. From the text:
Figure 4. SPs induce proliferation and activation of vTreg53 Treg cells in vitro and in vivo. (A–D) Proliferation and activation of vTreg53 Treg cells by different concentrations of SPs for 3 days in vitro (n = 3). (A) Representative flow cytometric plot of cell division. (B) Summary of cell proliferation. (C) Mean flourescence intensity (MFI) of CD44 staining in clonotype^+ Treg cells. (D) MFI of CD62L staining in clonotype^+ Treg cells. (E) Proliferation of transferred CD45.2^+ vTreg53 Treg cells in the spleen of CD45.1^+ B6 recipient mice immunized s.c. with CFA or CFA/Fat1562 at day 3 (n = 3). […]
To assess early Treg proliferation following peptide stimulation in vivo, 0.4 million Treg cells were sorted from pooled Spl and LNs of 6-8wk-old male CD45.2^+ Tg^+ Foxp3-GFP^KI/y mice by Moflo, labeled by the CellTrace Violet dye (ThermoFisher Scientific), and were i.v.-injected into 6-8wk old male B6.CD45.1^+ mice. […] Proliferation of clonotype^+ Tregs in the spleen was determined three days later. […] Six weeks later, the recipient mice were immunized with 200 µg CFA/peptides s.c. on the lower back, and one week later were boosted with 100 μg IFA/peptides i.p. After another week, clonotype^+ CD45.2^+ Treg cells from the Spl/LNs or VAT of recipient mice were analyzed by flow cytometry and double-sorted for ultra-low-input RNA-seq. […]

Where no end group is shown, it is not given here. A value given as a limit tells only on which side of the number the result lay.

Regarding LMFKGPHAVQAVG [Fat7], the “CD44 up-regulation” value in the assay with vTreg53 Treg cells [1] (0.01 µM, compared with no peptide) is “unable to promote any further proliferation and up-regulation of CD44 expression”. Further, the “proliferation” value in the assay with vTreg53 Treg cells [1] (0.01 µM) is given as “unable to promote any further proliferation”. Further, the “CD62L down-regulation” value in the assay with vTreg53 Treg cells [1] (1 µM, n = 3) is on record as “dampened CD62L levels only moderately”.
As to TMYKNPRPMAATG [Fat1562], in the assay with vTreg53 Treg cells [1] (0.01 µM), the “CD62L down-regulation” value was “strongest proliferation and down-regulation of CD62L”; the “proliferation” value is reported as “strongest proliferation”. Moreover, in the assay with vTreg53 Treg cells [1] (1 µM, n = 3), the “CD62L down-regulation” value was “strongest down-regulation of CD62L”. Further, the “potency on primary vTreg53 Treg cells” value in the assay on vTreg53 Treg cells [1] is “consistently the strongest SP”. The “expansion of clonotype^+ Treg cells in VAT” value in the assay with vTreg53 Treg cells [2] is over 25 fold.
TMYKNLRPWAATG [Fat2564]: the “potency on primary vTreg53 Treg cells” value in the assay with vTreg53 Treg cells [1] is listed as “relatively weak potency, which was comparable with that of Fat7”.
